#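 Cultured in 96-well plates, cells were exposed to test compound for 48 hours across five concentrations. GI50 marks 50% less growth.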 Activity calls are given as the source filed them. Cut-off read from the data, not from the text of the source: active = GI50 up to about 1.1 µM and inactive = higher.
# Key:
# Test in all cases: growth of human tumour cells (NCI), 48 h
# A498 = tested on: A498
# A549 = tested on: A549
# DU-145 = tested on: DU-145
# HCC 2998 = tested on: HCC 2998
# HCT-116 = tested on: HCT-116
# HOP-92 = tested on: HOP-92
# IGROV-1 = tested on: IGROV-1
# KM-20L2 = tested on: KM-20L2
# LXFL 529 = tested on: LXFL 529
# M14 = tested on: M14
# MDA-MB-435 = tested on: MDA-MB-435
# MOLT-4 = tested on: MOLT-4
# NCI/ADR-RES = tested on: NCI/ADR-RES
# OVCAR-5 = tested on: OVCAR-5
# SF-539 = tested on: SF-539
# SNB-19 = tested on: SNB-19
# T47D = tested on: T47D
# TK-10 = tested on: TK-10
# U-251 = tested on: U-251
# UACC-62 = tested on: UACC-62
SMILES,GI50 (A498),GI50 (A549),GI50 (DU-145),GI50 (HCC 2998),GI50 (HCT-116),GI50 (HOP-92),GI50 (IGROV-1),GI50 (KM-20L2),GI50 (LXFL 529),GI50 (M14),GI50 (MDA-MB-435),GI50 (MOLT-4),GI50 (NCI/ADR-RES),GI50 (OVCAR-5),GI50 (SF-539),GI50 (SNB-19),GI50 (T47D),GI50 (TK-10),GI50 (U-251),GI50 (UACC-62)
CCN(CC)CCCNc1ccc2ncn3c4ccc(O)cc4c(=O)c1c23,4450 nM (inactive),231 nM (active),1420 nM (inactive),2150 nM (inactive),441 nM (active),718 nM (active),1390 nM (inactive),2850 nM (inactive),2650 nM (inactive),3300 nM (inactive),> 10000 nM (inactive),41.1 nM (active),> 10000 nM (inactive),1980 nM (inactive),2900 nM (inactive),2210 nM (inactive),> 10000 nM (inactive),1690 nM (inactive),1660 nM (inactive),3210 nM (inactive)
COc1ccc2nc3ccccc3c(NCCCN(C)CCCl)c2c1,458 nM (active),235 nM (active),333 nM (active),388 nM (active),87.7 nM (active),185 nM (active),328 nM (active),170 nM (active),99.5 nM (active),453 nM (active),298 nM (active),< 13.3 nM (active),313 nM (active),497 nM (active),249 nM (active),601 nM (active),35.8 nM (active),859 nM (active),287 nM (active),230 nM (active)
COc1nc(NC2OC(COC(C)=O)C(OC(C)=O)C(OC(C)=O)C2OC(C)=O)c(/N=C/C=N/c2c(NC3OC(COC(C)=O)C(OC(C)=O)C(OC(C)=O)C3OC(C)=O)nc(OC)n(C)c2=O)c(=O)n1C (stereo not given),> 100000 nM (inactive),> 100000 nM (inactive),> 100000 nM (inactive),> 100000 nM (inactive),> 100000 nM (inactive),39000 nM (inactive),> 100000 nM (inactive),> 100000 nM (inactive),> 100000 nM (inactive),> 100000 nM (inactive),> 100000 nM (inactive),> 100000 nM (inactive),> 100000 nM (inactive),> 100000 nM (inactive),> 100000 nM (inactive),48400 nM (inactive),> 100000 nM (inactive),56400 nM (inactive),30500 nM (inactive),> 100000 nM (inactive)
NC(CS)C(=O)NCCNc1ccc(NCCNC(=O)C(N)CS)c2c1C(=O)c1c(O)ccc(O)c1C2=O (stereo not given),77.1 nM (active),2.51 nM (active),26.1 nM (active),225 nM (active),39.1 nM (active),6.38 nM (active),219 nM (active),61.8 nM (active),106 nM (active),24.8 nM (active),483 nM (active),< 1 nM (active),126 nM (active),481 nM (active),25.9 nM (active),18.8 nM (active),166 nM (active),667 nM (active),5.79 nM (active),22.3 nM (active)
c1ccc2c(NCCCCCCNc3c4ccccc4nc4ccccc34)c3ccccc3nc2c1,1250 nM (inactive),290 nM (active),632 nM (active),171 nM (active),39.2 nM (active),240 nM (active),166 nM (active),78.5 nM (active),155 nM (active),1230 nM (inactive),887 nM (active),14.9 nM (active),17900 nM (inactive),130 nM (active),108 nM (active),649 nM (active),647 nM (active),1340 nM (inactive),276 nM (active),695 nM (active)
O=P1(NCCCl)OCCCN1CCCl (stereo not given) [IFOSFAMIDE],428000 nM (inactive),401000 nM (inactive),> 500000 nM (inactive),346000 nM (inactive),401000 nM (inactive),333000 nM (inactive),433000 nM (inactive),385000 nM (inactive),498000 nM (inactive),> 467000 nM (inactive),> 500000 nM (inactive),262000 nM (inactive),410000 nM (inactive),407000 nM (inactive),355000 nM (inactive),361000 nM (inactive),> 500000 nM (inactive),> 471000 nM (inactive),310000 nM (inactive),363000 nM (inactive)
